In patent publication US6673749B1, “Use of phyllocladane diterpenoids for plant growth promotion and alleviation of growth retardant allelochemicals, and method therefor” (Council of Scientific and Industrial Research, priority 2002, dated 2004):

Assays:
Assay type in all cases: in vivo
Vigna radiata = test: Seed germination and seedling shoot/root growth test in petridishes; details: for Percent (%) germination of seeds in relation to control on 9th day after sowing / Percent (%) root growth of seedlings in relation to control on 9th day after sowing / Percent (%) shoot growth of seedlings in relation to control on 9th day after sowing: Vigna radiata, control = 100%
Protocol: (§1) As noted above the activity of phyllocladane diterpenoids used in the practice of this invention was observed when these compounds were tested for their effects on seed germination, root and shoot growth of certain plant species and their antagonistic effect on plant growth retardants by the method described by Bagchi G. D. et al Phytochemistry, 45(6)1131-1133, 1997.
(§2) Plant growth promoting activity of calliterpenone, calliterpenone monoacetate, and calliterpenone di-acetate was examined at 0.1, 0.01 and 0.001 μM concentrations. The tests were conducted against seeds of two monocotyledonous (Hordeum vulgare and Triticum aestivum) and two dicotyledonous plants (Vigna radiata and Trigonella foenum-graecum). Control seeds were germinated in distilled water and all the observations were compared with […]. The root and shoot growth of all the plant species were affected by the phyllocladane diterpenoids, although the extent of effect varied considerably in the plant species with the chemicals and their concentrations. […] Details of the procedure adopted and results obtained are discussed in the various examples.
(§3) 100 ml stalk solutions of 0.1 μM concentration were prepared by dissolving required amounts of various test compounds (depending upon their molecular weights) in minimum amount of ethanol or acetone and adding distilled water. From this stalk solution, 0.01 μM and 0.001 μM concentrations were prepared. Calliterpenone and calliterpenone di acetate was dissolved in 2.0 ml absolute ethanol (Merc), while; calliterpenone monoacetate, isopropylideno calliterpenone and trihydroxy calliterpenone were dissolved in 2.0 ml spectral grade acetone (Ranbaxy). The respective control test solutions of distilled water of each concentration also contained equal amount of absolute ethanol or acetone. For an assay, 10 seeds were placed on Whatman filter paper (moistened with 5.0 ml of test solution in a 9.0 cm diameter petridish (in triplicate). The pteridishes were incubated for 9 days in a germinator, maintained at 25.0±1.0° C. with 90% humidity and 4 hr light/day. At the end of incubation, observations were recorded on the seedlings in terms of germination, shoot and root growth. The data on the length of shoot and root of seedlings and number of seeds germinated in different concentrations of compounds were compared with the control, which was taken as 100%. The data thus obtained were presented in Table-1.
(§4) Root growth of seedlings was measured in the similar way as shoot growth from the experiment as described in Example 1.
(§5) Effect of test compounds on germination was observed from the same experiment as described in Example 1.

Hordeum vulgare = test: as above; details: control = 100%
Protocol: as §1, §2, §3, §4, §5

[1] = test system: Trigonella foenum-graecum; test: as above; details: for Percent (%) germination of seeds in relation to control on 9th day after sowing / Percent (%) root growth of seedlings in relation to control on 9th day after sowing / Percent (%) shoot growth of seedlings in relation to control on 9th day after sowing: Trigonella foenum graecum, control = 100%
Protocol: as §1, §2, §3, §4, §5

Triticum aestivum = test: as above; details: control = 100%
Protocol: as §1, §2, §3, §4, §5

Hibiscus sabdariffa = test: Seed germination and seedling growth, comparison with GA3 (Example 4)
Protocol: as §3
(§6) Effect of calliterpenone and its derivatives on seed germination and seedling growth in Hibiscus sabdariffa and Sesbania cannabina were measured in the similar way as these were measured in Example-1.

Sesbania cannabina = test: as above
Protocol: as §3, §6

## C=C1C[C@]23C[C@@]1(O)CC[C@H]2[C@@]12C=C[C@H](O)[C@@](C)(C(=O)O1)[C@H]2[C@@H]3C(=O)O [GA3, Gibberellic acid, reference compound]
Vigna radiata; V.radiata, concentration not specified
  Seed germination as compared to 100% in control: 200%
Vigna radiata; 0.001 μM
  Percent (%) germination of seeds in relation to control on 9th day after sowing: 200%
  Percent (%) root growth of seedlings in relation to control on 9th day after sowing: 102%
  Percent (%) shoot growth of seedlings in relation to control on 9th day after sowing: 126%
Vigna radiata; 0.01 μM
  Percent (%) germination of seeds in relation to control on 9th day after sowing: 200%
  Percent (%) root growth of seedlings in relation to control on 9th day after sowing: 103%
  Percent (%) shoot growth of seedlings in relation to control on 9th day after sowing: 196%
Vigna radiata; 0.1 μM
  Percent (%) germination of seeds in relation to control on 9th day after sowing: 200%
  Percent (%) root growth of seedlings in relation to control on 9th day after sowing: 104%
  Percent (%) shoot growth of seedlings in relation to control on 9th day after sowing: 183%
Hordeum vulgare; 0.001 μM
  Percent (%) germination of seeds in relation to control on 9th day after sowing: 100%
  Percent (%) root growth of seedlings in relation to control on 9th day after sowing: 132%
  Percent (%) shoot growth of seedlings in relation to control on 9th day after sowing: 104%
Hordeum vulgare; 0.01 μM
  Percent (%) germination of seeds in relation to control on 9th day after sowing: 100%
  Percent (%) root growth of seedlings in relation to control on 9th day after sowing: 115%
  Percent (%) shoot growth of seedlings in relation to control on 9th day after sowing: 91%
Hordeum vulgare; 0.1 μM
  Percent (%) germination of seeds in relation to control on 9th day after sowing: 100%
  Percent (%) root growth of seedlings in relation to control on 9th day after sowing: 70%
  Percent (%) shoot growth of seedlings in relation to control on 9th day after sowing: 55%
[1]; 0.001 μM
  Percent (%) germination of seeds in relation to control on 9th day after sowing: 100%
  Percent (%) root growth of seedlings in relation to control on 9th day after sowing: 123%
  Percent (%) shoot growth of seedlings in relation to control on 9th day after sowing: 116%
[1]; 0.01 μM
  Percent (%) germination of seeds in relation to control on 9th day after sowing: 100%
  Percent (%) root growth of seedlings in relation to control on 9th day after sowing: 45%
  Percent (%) shoot growth of seedlings in relation to control on 9th day after sowing: 112%
[1]; 0.1 μM
  Percent (%) germination of seeds in relation to control on 9th day after sowing: 100%
  Percent (%) root growth of seedlings in relation to control on 9th day after sowing: 45%
  Percent (%) shoot growth of seedlings in relation to control on 9th day after sowing: 93%
[1]; Trigonella foenum-graceum, concentration not specified
  Seed germination as compared to 100% in control: 100%
Triticum aestivum; 0.001 μM
  Percent (%) germination of seeds in relation to control on 9th day after sowing: 100%
  Percent (%) root growth of seedlings in relation to control on 9th day after sowing: 131%
  Percent (%) shoot growth of seedlings in relation to control on 9th day after sowing: 120%
Triticum aestivum; 0.01 μM
  Percent (%) germination of seeds in relation to control on 9th day after sowing: 100%
  Percent (%) root growth of seedlings in relation to control on 9th day after sowing: 116%
  Percent (%) shoot growth of seedlings in relation to control on 9th day after sowing: 115%
Triticum aestivum; 0.1 μM
  Percent (%) germination of seeds in relation to control on 9th day after sowing: 100%
  Percent (%) root growth of seedlings in relation to control on 9th day after sowing: 62%
  Percent (%) shoot growth of seedlings in relation to control on 9th day after sowing: 113%
Hibiscus sabdariffa; 0.001 μM
  Seed Ger.: 3
  Root Growth (mm) 3rd Day: 21.5 mm
  Shoot growth 3rd Day: 47.6
  Root Growth (mm) 6th Day: 22.8 mm
  Shoot growth 6th Day: 76.3
  Root Growth (mm) 9th Day: 25.0 mm
  Shoot growth 9th Day: 85.8
Hibiscus sabdariffa; 0.01 μM
  Seed Ger.: 3
  Root Growth (mm) 3rd Day: 15.8 mm
  Shoot growth 3rd Day: 39.6
  Root Growth (mm) 6th Day: 16.6 mm
  Shoot growth 6th Day: 76.5
  Root Growth (mm) 9th Day: 16.6 mm
  Shoot growth 9th Day: 76.5
Hibiscus sabdariffa; 0.1 μM
  Seed Ger.: 2
  Root Growth (mm) 3rd Day: 15.3 mm
  Shoot growth 3rd Day: 46.8
  Root Growth (mm) 6th Day: 29.3 mm
  Shoot growth 6th Day: 76.6
  Root Growth (mm) 9th Day: 32.0 mm
  Shoot growth 9th Day: 81.6
Sesbania cannabina; 0.001 μM
  Seed Ger.: 1
  Root Growth (mm) 3rd Day: 35.5 mm
  Shoot growth 3rd Day: 31.0
  Root Growth (mm) 6th Day: 34.0 mm
  Shoot growth 6th Day: 85.6
  Root Growth (mm) 9th Day: 40.0 mm
  Shoot growth 9th Day: 103.6
Sesbania cannabina; 0.01 μM
  Seed Ger.: 2
  Root Growth (mm) 3rd Day: 23.5 mm
  Shoot growth 3rd Day: 27.0
  Root Growth (mm) 6th Day: 25.5 mm
  Shoot growth 6th Day: 66.8
  Root Growth (mm) 9th Day: 27.8 mm
  Shoot growth 9th Day: 67.0
Sesbania cannabina; 0.1 μM
  Seed Ger.: 1
  Root Growth (mm) 3rd Day: 16.5 mm
  Shoot growth 3rd Day: 32.5
  Root Growth (mm) 6th Day: 16.6 mm
  Shoot growth 6th Day: 42.3
  Root Growth (mm) 9th Day: 26.6 mm
  Shoot growth 9th Day: 61.3
